Measured values from PMC10996005, “Identification and Development of Cyclic Peptide Inhibitors of Hypoxia Inducible Factors 1 and 2 That Disrupt Hypoxia-Response Signaling in Cancer Cells” (Journal of the American Chemical Society, 2024).
Where a SMILES comes first, the peptide text is derived from it. [ ]: non-standard residue; d: D form. Phe(4-I) = N[C@@H](Cc1ccc(I)cc1)C(=O)O

Tested on: T-Rex-293 cells
Test: CytoTox-Glo cytotoxicity / viability assay
Assay type: cell-based, human
Settings: doses up to 75 μM
Text: Following in vitro characterization and optimization of binding, we next assessed the effect of our cyclic peptides in mammalian cells. A cell line with a stably integrated reporter was constructed, in which the expression of yellow fluorescent protein (YFP) was placed under the control of a HRE. Thus, hypoxia would be expected to increase YFP expression (and subsequent fluorescence) in these cells, whereas treatment with a cell-permeable HIF inhibitor would be expected to reduce this fluorescence signal. A fusion cassette was designed containing the YFP gene preceded by three copies of the HRE sequence. This cassette was stably integrated into T-REx-293 cells as previously described.[12] […] The effect of this compound on the viability of T-Rex-293 was assessed with no effect observed at doses up to 75 μM (Figure S9a). […] It should be noted that the relative activity of each compound in this assay will be a combination of its cell permeability and HIF-inhibiting activity. […] We therefore continued to further characterize the cell activity of the 4-iodo-phenylalanine derivative. […]
Pancreatic cancer cells (PANC-1) were plated in a T75 flask at 80% confluency overnight under normoxic conditions. […] The concentration of the extracted proteins was measured using the BCA Protein Assay Kit (Sigma) following the manufacturer's instructions. […]

Structure (SMILES): CC[C@H](C)[C@@H]1NC(=O)[C@H](CC(C)C)NC(=O)[C@H](CCCNC(=N)N)NC(=O)[C@H](CS)NC(=O)[C@H](Cc2ccc(I)cc2)NC(=O)[C@H]([C@@H](C)CC)NC1=O [cyclo-CRLII(4-iodo)F] (cyclo(CRLII[Phe(4-I)]))
- effect on the viability of T-Rex-293: no effect
